Activity calls are given as the source filed them. Rule as the data show it, for most assays here: actives have a measured IC50 and inactives only a lower limit.
Tests used:
Assay type in all cases: functional
Caspase-3 = target: T1, Caspase-3 (Homo sapiens, UniProt P42574);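 also: Dose-response selectivity test against caspase-3 for candidate inhibitors of sentrin-specific proteases (SENPs)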
T1 sequence (P42574 whole entry): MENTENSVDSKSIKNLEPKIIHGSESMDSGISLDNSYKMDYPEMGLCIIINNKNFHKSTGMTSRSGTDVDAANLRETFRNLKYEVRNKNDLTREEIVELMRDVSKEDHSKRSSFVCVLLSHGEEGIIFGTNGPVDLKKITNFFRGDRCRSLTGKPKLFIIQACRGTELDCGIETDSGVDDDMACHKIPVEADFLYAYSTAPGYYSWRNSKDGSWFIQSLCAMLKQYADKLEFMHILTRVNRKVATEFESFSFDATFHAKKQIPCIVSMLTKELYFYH

[1] = target: T2, Sentrin-specific protease 7 (Homo sapiens, UniProt Q9BQF6);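 also: Luminescence-based dose-response confirmation of ultra-high-throughput screening hits, measuring inhibition of SENP7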
T2 sequence (Q9BQF6 whole entry): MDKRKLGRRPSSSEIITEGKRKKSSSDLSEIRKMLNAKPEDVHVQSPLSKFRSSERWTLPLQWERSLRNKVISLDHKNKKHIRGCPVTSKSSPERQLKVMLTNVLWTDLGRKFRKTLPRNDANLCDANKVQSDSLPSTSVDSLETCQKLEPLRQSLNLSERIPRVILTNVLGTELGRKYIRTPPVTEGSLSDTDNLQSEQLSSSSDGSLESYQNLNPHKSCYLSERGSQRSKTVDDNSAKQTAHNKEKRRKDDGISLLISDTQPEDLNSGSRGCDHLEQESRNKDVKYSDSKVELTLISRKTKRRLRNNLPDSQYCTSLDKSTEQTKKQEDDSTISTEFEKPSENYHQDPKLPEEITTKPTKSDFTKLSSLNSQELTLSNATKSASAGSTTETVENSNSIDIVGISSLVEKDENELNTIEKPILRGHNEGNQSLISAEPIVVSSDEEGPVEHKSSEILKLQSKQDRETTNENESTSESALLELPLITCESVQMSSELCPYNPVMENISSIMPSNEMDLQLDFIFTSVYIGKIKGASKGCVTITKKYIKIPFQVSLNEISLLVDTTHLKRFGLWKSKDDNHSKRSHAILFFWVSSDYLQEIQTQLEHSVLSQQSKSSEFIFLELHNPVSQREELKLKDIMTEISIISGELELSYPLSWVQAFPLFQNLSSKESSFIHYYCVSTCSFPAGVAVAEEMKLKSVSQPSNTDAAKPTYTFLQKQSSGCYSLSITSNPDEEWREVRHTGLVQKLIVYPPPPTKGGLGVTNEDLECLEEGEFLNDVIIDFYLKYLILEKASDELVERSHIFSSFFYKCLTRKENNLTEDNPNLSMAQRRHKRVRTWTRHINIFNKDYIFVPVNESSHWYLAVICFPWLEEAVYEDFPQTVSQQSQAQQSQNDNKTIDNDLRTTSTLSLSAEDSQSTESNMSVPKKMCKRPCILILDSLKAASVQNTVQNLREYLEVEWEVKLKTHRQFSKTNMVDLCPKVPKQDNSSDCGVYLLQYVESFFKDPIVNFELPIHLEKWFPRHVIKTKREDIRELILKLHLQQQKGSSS

[2] = target: T3, Sentrin-specific protease 6 (Homo sapiens, UniProt Q9GZR1);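 also: Luminescence-based dose-response confirmatory assay of SENP6 inhibition, following up an ultra-high-throughput screen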
T3 sequence (Q9GZR1 whole entry): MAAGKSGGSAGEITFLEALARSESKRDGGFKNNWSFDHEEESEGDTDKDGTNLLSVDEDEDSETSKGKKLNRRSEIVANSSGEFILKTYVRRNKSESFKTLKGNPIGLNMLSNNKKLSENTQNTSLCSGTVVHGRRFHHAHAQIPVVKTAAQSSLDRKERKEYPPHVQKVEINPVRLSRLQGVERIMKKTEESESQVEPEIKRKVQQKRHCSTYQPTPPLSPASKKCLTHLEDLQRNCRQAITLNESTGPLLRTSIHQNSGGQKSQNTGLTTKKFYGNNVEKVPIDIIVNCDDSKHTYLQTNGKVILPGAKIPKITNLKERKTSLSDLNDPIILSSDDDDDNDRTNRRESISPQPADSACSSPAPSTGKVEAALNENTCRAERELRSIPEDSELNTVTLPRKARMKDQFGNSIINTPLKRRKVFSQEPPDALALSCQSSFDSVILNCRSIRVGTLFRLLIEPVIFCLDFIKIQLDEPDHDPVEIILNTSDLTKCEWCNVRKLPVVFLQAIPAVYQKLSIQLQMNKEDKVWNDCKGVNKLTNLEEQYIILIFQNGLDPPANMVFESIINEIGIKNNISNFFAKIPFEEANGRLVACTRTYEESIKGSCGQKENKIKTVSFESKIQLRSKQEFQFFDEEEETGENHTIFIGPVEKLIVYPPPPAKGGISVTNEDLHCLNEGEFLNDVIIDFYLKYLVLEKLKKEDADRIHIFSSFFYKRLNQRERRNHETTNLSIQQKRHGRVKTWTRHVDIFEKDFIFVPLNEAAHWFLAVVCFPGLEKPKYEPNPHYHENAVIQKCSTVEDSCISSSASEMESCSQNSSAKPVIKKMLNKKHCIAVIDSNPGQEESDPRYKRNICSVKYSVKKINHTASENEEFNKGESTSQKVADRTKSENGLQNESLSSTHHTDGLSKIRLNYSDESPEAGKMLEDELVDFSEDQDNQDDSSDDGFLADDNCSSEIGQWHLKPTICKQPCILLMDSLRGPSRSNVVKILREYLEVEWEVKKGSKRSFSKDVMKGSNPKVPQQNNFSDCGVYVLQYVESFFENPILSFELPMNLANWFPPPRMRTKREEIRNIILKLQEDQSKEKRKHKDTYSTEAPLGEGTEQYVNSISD

[3] = target: T4, Sentrin-specific protease 8 (Homo sapiens, UniProt Q96LD8);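 also: luminescence read-out of SENP8 inhibition, dose-response confirmation following an ultra-high-throughput screen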
T4 sequence (Q96LD8 whole entry): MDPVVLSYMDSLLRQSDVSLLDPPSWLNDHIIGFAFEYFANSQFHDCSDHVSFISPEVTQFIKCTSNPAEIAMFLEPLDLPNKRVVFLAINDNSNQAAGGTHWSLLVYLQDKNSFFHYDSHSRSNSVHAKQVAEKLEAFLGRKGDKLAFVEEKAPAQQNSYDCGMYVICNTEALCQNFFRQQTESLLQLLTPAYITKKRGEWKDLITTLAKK

[4] = target: T5, High affinity choline transporter 1 (Homo sapiens, UniProt Q9GZV3); test: CHT inhibitors, dose response, cell-based, 5-point CRC, membrane potential dye (AID 504840)
T5 sequence (Q9GZV3 whole entry): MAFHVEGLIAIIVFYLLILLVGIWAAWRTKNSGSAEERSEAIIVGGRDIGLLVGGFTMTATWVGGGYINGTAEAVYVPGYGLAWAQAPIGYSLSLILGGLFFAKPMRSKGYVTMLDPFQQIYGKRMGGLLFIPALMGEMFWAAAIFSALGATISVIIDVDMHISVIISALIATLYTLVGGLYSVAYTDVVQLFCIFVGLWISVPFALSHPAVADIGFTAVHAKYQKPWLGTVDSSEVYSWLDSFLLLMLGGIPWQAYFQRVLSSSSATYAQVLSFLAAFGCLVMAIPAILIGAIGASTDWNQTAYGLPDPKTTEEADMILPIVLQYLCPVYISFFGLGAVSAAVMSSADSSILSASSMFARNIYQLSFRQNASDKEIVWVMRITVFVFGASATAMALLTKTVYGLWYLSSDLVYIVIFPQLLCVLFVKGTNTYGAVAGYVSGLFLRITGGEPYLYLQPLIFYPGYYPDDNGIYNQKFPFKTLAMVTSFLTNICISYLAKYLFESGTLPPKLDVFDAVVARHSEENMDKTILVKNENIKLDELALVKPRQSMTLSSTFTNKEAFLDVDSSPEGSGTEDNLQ

[5] = target: T5, High affinity choline transporter 1; test: CHT inhibitors, dose response, cell-based, 10-point CRC, membrane potential dye (AID 588401);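 also: membrane potential dye fluorescence of choline-evoked depolarization via CHT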

Measured: IC50

Cn1c(SCc2ccc(C#N)cc2Cl)nc2ccccc21
active: Caspase-3 8.4 µM | [1] 4.57 µM | [2] 10.8 µM | [3] 14.8 µM | [4] 3.99 µM | [5] 3.4 µM
